Measured values published in patent US10941399B2, “Methods and compositions for gene-specific demethylation by DNA methyltransferase (DNMT)-RNA interaction” (Beth Israel Deaconess Medical Center, Inc., priority 2011, dated 2021).
Entries after “also recorded” stand apart in the source; their conditions may differ.

How the values were obtained:
myeloma cells = conditions: cited from earlier work
HL-60 cells = test: DRB and ML-60218 treatment of HL-60 cells, transcript levels by Taqman qRT-PCR; format: cell-based, human
Protocol: qRT-PCR: Sybr green reactions were performed using iQ Sybr Green supermix (Biorad, Hercules, Calif.) using the following parameters: 95° C. (10 min.), 40 cycles of 95° C. (15 sec.) and 60° C. (1 min.), and 72° C. (1 min.). TaqMan analysis was performed using Hotstart Probe One-step qRT-PCR master mix (USB) at the following conditions: 50° C. (10 min.), 95° C. (2 min.), and then 40 cycles of 95° C. (15 sec.) and 60° C. (60 sec.). qRT PCR primers were located in the coding region for the mRNA (black double headed arrow) and after the polyA signal for the ecRNA (white double headed arrow) (FIG. 1A). The sequences of primers used for TaqMan real time PCR were as follows: human C/EBPa: Forward 5′-TCG GTG GACAAG AAC AG-3′ (SEQ ID NO:18), Reverse 5′-GCA GGC GGT CAT TG-3′ (SEQ ID NO:19), and Taqman Probe 5′-ACA AGGCCA AGC AGC GC-3′ (SEQ ID NO:20); ecRNA: Forward 5′-GGTTGTCTGTGGGCCAGGTCA-3′(SEQ ID NO:21), Reverse 5′-AGAGCTCATGAAAGTCAGGATTG-3′ (SEQ ID NO:22), and Taqman Probe 5′-AAT AAT ACAGCA TTT TCC CTG GCG G-3′(SEQ ID NO:23); human C/EBPγ: Forward: 5′-GGC TAG AGG AGC AGGTAC AT-3′ (SEQ ID NO:24), Reverse: 5′-GCCTGGGTATGGATAACACTA-3′ (SEQ ID NO:25), and Taqman Probe: 5′-CGACAC CAC TCA TGT CAA TGG CTG-3′ (SEQ ID NO:26); human TP73: ABI Cat. #Hs01060631_m1; 18S rRNA: ABI Cat. #4310893E; and human 5S rRNA: ABI Cat. #Hs02385257_g1. The sequences of primers used for real-time RT PCR (Sybr) were as follows: human C/EBPa: Forward: 5′-CCG CTC CTCCAC GCC TGT CCT TAG-3′ (SEQ ID NO:27) and Reverse: 5′-GCCCCACAGCCAGATCTCTAGGTC-3′ (SEQ ID NO:28); ecRNA: Forward: 5′-TCATGAGCTCTCCATCCATCCTGA-3′(SEQ ID NO:29) and Reverse: 5′-CTG GCCGAG GGT CCT GCT GGA ATC-3′ (SEQ ID NO:30); and β-ACTIN Promega Cat. #G5740.
Double thymidine block (early S-phase block): HL-60 cells were grown overnight to 70-80% confluence, washed twice with 1×PBS, and cultured in DMEM (10% FCS)+2.5 mM thymidine for 18 h (first block). Thymidine was washed out with 1×PBS, and cells were grown in DMEM (10% FCS). After 8 hours, cells were cultured in presence of thymidine for 18 h (second block) and then released as described. Synchrony was monitored by flow cytometry analysis of propidium iodide-stained cells using a LSRII flow cytometer (BD Biosciences) at the Harvard Stem Cell Institute/Beth Israel Deaconess Center flow cytometry facility.
DRB and ML-60218 treatment: After release from double thymidine block, HL-60 cells were treated with 100 μM of 5,6-Dichlorobenzimidazole 1-β-D-ribofuranoside (DRB) (Sigma Aldrich) for 1, 2, and 3 hours. HL-60 cells were treated with 25 μM ML-60218 (2-chloro-N[5-(5-chloro-3-methyl-1-benzothiophen-2-yl)-2-methylpyrazol-3-yl]benzenesulfonamide, Calbiochem®) for 24 hours. Total RNA was harvested as described above and expression levels of C/EBPa, ecRNA, and 5S were measured by Taqman qRT-PCR.

DNMT1 = DNMT1 (Homo sapiens, UniProt P26358); test: Nuclear RNA immunoprecipitation (RIP) with anti-DNMT1 antibody; format: binding; design: endogenous in cells; host or cells: HL-60 cells (nuclei); Similar results were obtained in U937 cells; conditions: HL-60 cells
Protocol: Nuclear RNA immunoprecipitation (nRIP): nRIP performed as described by Ebralidze et al. (Science 303:383-387, 2004) with some modifications. Crosslinked nuclei were collected as follows: About 60×10^6 HL-60 cells were crosslinked with 1% formaldehyde (formaldehyde solution, freshly made 50 mM HEPES-KOH; 100 mM NaCl; 1 mM EDTA; 0.5 mM EGTA; 11% formaldehyde) for 10 minutes at room temperature. Crosslinking was halted by adding 1/10th volume of 2.66 M Glycine, kept for 5 minutes at room temperature and 10 minutes on ice. Cell pellets were washed twice with ice-cold PBS (freshly supplemented with 1 mM PMSF) and then resuspended in cell lysis buffer (volume=4 mL, 1× Buffer of 10 mM Tris pH 7.4; 10 mM NaCl; 0.5% NP-40, freshly supplemented with protease inhibitors (protease inhibitors cocktail: Roche Applied Science, Cat. No. 1836153, 1 tablet with 375 μL H2O; add as ×100), 1 mM PMSF, and 2 mM vanadyl complex (NEB)). Cells were incubated at 0° C. for 10-15 minutes and homogenized by Dounce (10 strokes pestle A and 40 strokes pestle B). Nuclei were recovered by centrifugation at 2,000 rpm for 10 minutes at 4° C. Nuclei were resuspended in 3 ml 1× Resuspension Buffer (50 mM HEPES-NaOH, pH 7.4; 10 mM MgCl2) supplemented with 1 mM PMSF and 2 mM vanadyl complex. […]

[1] = 100 μM DRB, 1, 2, 3 h after release from double thymidine block

Chain of DNMT1 (P26358 whole entry): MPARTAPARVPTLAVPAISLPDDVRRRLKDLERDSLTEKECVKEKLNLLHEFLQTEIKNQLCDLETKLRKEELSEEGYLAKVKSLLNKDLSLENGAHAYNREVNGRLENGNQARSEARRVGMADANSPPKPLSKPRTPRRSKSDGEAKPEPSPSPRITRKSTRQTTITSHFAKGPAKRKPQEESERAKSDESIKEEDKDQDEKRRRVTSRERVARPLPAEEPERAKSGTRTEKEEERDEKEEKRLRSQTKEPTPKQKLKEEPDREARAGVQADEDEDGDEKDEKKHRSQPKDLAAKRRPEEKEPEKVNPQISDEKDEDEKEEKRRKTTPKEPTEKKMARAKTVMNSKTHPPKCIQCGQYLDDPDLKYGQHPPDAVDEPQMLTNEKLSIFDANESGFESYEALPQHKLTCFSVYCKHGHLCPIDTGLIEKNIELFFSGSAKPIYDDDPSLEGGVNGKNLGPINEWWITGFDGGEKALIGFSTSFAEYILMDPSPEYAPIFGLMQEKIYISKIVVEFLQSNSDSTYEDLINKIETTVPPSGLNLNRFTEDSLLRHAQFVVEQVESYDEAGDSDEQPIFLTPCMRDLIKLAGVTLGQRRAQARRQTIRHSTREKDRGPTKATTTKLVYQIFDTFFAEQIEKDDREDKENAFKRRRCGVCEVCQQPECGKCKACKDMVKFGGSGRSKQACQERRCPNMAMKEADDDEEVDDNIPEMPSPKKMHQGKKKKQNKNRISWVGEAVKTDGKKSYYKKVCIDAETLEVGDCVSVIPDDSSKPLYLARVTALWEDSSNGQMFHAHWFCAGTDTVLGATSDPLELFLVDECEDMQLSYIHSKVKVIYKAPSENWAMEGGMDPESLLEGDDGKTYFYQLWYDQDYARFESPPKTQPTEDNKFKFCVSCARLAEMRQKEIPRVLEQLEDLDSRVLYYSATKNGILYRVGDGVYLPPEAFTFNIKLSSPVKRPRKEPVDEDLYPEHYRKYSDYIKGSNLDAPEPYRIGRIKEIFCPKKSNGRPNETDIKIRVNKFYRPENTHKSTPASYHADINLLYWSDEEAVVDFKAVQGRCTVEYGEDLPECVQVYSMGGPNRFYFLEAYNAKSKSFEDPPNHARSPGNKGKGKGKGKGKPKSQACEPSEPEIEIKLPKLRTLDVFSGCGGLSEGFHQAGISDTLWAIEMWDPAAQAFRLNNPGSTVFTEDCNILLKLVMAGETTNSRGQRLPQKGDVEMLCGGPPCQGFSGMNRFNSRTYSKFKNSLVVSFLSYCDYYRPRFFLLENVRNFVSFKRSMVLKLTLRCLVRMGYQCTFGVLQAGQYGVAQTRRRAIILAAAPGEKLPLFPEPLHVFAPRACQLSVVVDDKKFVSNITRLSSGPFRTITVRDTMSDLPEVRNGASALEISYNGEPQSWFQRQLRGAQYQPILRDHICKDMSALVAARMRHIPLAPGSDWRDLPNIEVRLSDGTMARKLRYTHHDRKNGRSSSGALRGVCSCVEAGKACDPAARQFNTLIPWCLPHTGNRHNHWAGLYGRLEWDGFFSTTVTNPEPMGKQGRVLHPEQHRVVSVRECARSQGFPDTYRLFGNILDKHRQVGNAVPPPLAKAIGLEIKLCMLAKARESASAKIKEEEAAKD

For `Nc1ncn([C@H]2C[C@H](O)[C@@H](CO)O2)c(=O)n1` [5-aza-2′-deoxycytidine], the PU.1 expression (myeloma cells) is listed as “upregulation” and the “growth of myeloma cells” value (myeloma cells) is listed as “growth arrest”.
In the case of `OC[C@H]1O[C@@H](n2cnc3cc(Cl)c(Cl)cc32)[C@H](O)[C@@H]1O` [DRB, 5,6-Dichlorobenzimidazole 1-β-D-ribofuranoside], the “C/EBPa mRNA expression level” value (HL-60 cells; [1]) is reported as “strong down-regulation” and the ecRNA expression level (HL-60 cells; [1]) is reported as “no decrease; also recorded: did not reduce”.
With `Cc1c(-c2cc(NS(=O)(=O)c3ccccc3Cl)n(C)n2)sc2ccc(Cl)cc12` [ML-60218, 2-chloro-N[5-(5-chloro-3-methyl-1-benzothiophen-2-yl)-2-methylpyrazol-3-yl]benzenesulfonamide] the “5S rRNA level” value (HL-60 cells; 25 μM ML-60218, 24 hours) was “significantly reduced”, the “C/EBPa mRNA level” value (HL-60 cells; 25 μM ML-60218, 24 hours) was “little effect; also recorded: only moderately affected” and the ecRNA level (HL-60 cells; 25 μM ML-60218, 24 hours) was “marked down-regulation; also recorded: significantly reduced”.
For “ecRNA: endogenous ~5 kb non-polyadenylated nuclear extra-coding transcript of the C/EBPa locus (SEQ ID NO:8)”, the “enrichment in DNMT1-RNA precipitates compared to IgG control” value (DNMT1) was greater than 60 fold.
